Laboratory results from article PMC11844072, “Novel 5,6-dichlorobenzimidazole derivatives as dual BRAFWT and BRAFV600E inhibitors: design, synthesis, anti-cancer activity and molecular dynamics simulations” (BMC Chemistry, 2025).

Columns and labels:
Assay in all cases: NCI 60 single concentration growth inhibition
Format in all cases: cell-based, human
UACC-62 = settings: Homo sapiens, UACC-62, Melanoma, read-out: GI%
Procedure: (§1) The synthesized dichlorobenzimidazoles 10a–p were assayed for their influence on divers cancer cell lines according to the method presented in the Additional file A.
(§2) 5. Screening of cytotoxic activity against a panel of sixty human tumor cell lines
(§3) The selected compounds by NCI were evaluated for their anticancer activity in a two-stage process. First, these compounds were screened against the full NCI 60 cell lines panel at a single high dose of 10 µM. Then, the output from the single dose screen is reported as a mean graph. […]
(§4) at five different minimal concentrations.
(§5) Assay protocol. The human tumor cell lines of the cancer screening panel are grown in RPMI 1640 medium containing 5% fetal bovine serum and 2 mM L-glutamine. For a typical screening experiment, cells are inoculated into 96 well microtiter plates in 100 µL at plating densities ranging from 5000 to 40,000 cells/well depending on the doubling time of individual cell lines. After cell inoculation, the microtiter plates are incubated at 37 °C, 5% CO 2, 95% air and 100% relative humidity for 24 h prior to addition of the experimental drugs.
(§6) After 24 h, two plates of each cell line are fixed in situ with TCA, to represent a measurement of the cell population for each cell line at the time of drug addition (Tz). The experimental drugs are solubilized in dimethyl sulfoxide at 400-fold the desired final maximum test concentration and stored frozen prior to use. At the time of drug addition, an aliquot of frozen concentrate is thawed and diluted to twice the desired final maximum test concentration with complete medium containing 50 µg/mL gentamicin. Additional four, 10-fold or ½ log serial dilutions are made to provide a total of five drug concentrations plus control.
(§7) Aliquots of […] of these different drug dilutions are added to the appropriate microtiter wells already containing […] of medium, resulting in the required final drug concentrations.
(§8) Following drug addition, the plates are incubated for an additional 48 h at 37 °C, 5% CO 2, 95% air, and 100% relative humidity. For adherent cells, the assay is terminated by the addition of cold TCA.
(§9) Cells are fixed in situ by the gentle addition of 50 µL of cold 50% (w/v) TCA (final concentration, 10% TCA) and incubated for 60 min at 4 °C. The supernatant is discarded, and the plates are washed five times with tap water and air dried. Sulforhodamine B (SRB) solution ([…]) at 0.4% (w/v) in 1% acetic acid is added to each well, and plates are incubated for 10 min at room temperature. After staining, unbound dye is removed by washing five times with 1% acetic acid and the plates are air dried. Bound stain is subsequently solubilized with 10 mM trizma base, and the absorbance is read on an automated plate reader at a wavelength of 515 nm. For suspension cells, the methodology is […]
(§10) the same except that the assay is terminated by fixing settled cells at the bottom of the wells by gently adding 50 µl of 80% TCA (final concentration, 16% TCA). Using the seven absorbance measurements [time zero, (Tz), control growth, (C), and test growth in the presence of drug at the five concentration levels (Ti)], the percentage growth is calculated at each of the drug concentrations […]
(§11) Percentage growth inhibition is calculated as: [(Ti Tz)/(C–Tz)] x 100 for concentrations for which Ti>/=Tz and [(Ti-Tz)/Tz] x 100 for concentrations for which Ti < Tz.
(§12) Three dose response parameters are calculated for each experimental agent. Growth […]
(§13) concentration resulting in a 50% reduction in the net protein increase (as measured by SRB staining) in control cells during the drug incubation. The drug concentration resulting in total growth inhibition (TGI) is calculated from Ti = Tz. […]
(§14) reduction in the measured protein at the end of the drug treatment as compared to that at the beginning) indicating a net loss of cells following treatment is calculated from [(Ti–Tz)/Tz] x 100 =
(§15) _50. Values are calculated for each of these three parameters if the level of activity is reached; […]

EKVX = settings: Homo sapiens, Non-small cell lung cancer, read-out: GI%
Procedure: as §1, §2, §3, §4, §5, §6, §7, §8, §9, §10, §11, §12, §13, §14, §15

ACHN = settings: Homo sapiens, Renal cancer, read-out: GI%
Procedure: as §1, §2, §3, §4, §5, §6, §7, §8, §9, §10, §11, §12, §13, §14, §15

786-0 = settings: Homo sapiens, 786-0, Renal cancer, read-out: GI%
Procedure: as §1, §2, §3, §4, §5, §6, §7, §8, §9, §10, §11, §12, §13, §14, §15

A498 = settings: Homo sapiens, A498, Renal cancer, read-out: GI%
Procedure: as §1, §2, §3, §4, §5, §6, §7, §8, §9, §10, §11, §12, §13, §14, §15

CCRF-CEM = settings: Homo sapiens, Leukemia, read-out: GI%
Procedure: as §1, §2, §3, §4, §5, §6, §7, §8, §9, §10, §11, §12, §13, §14, §15

MDA-MB-231/ATCC = settings: Homo sapiens, Breast cancer, read-out: GI%
Procedure: as §1, §2, §3, §4, §5, §6, §7, §8, §9, §10, §11, §12, §13, §14, §15

OVCAR-8 = settings: Homo sapiens, OVCAR-8, Ovarian cancer, read-out: GI%
Procedure: as §1, §2, §3, §4, §5, §6, §7, §8, §9, §10, §11, §12, §13, §14, §15

T-47D = settings: Homo sapiens, T47D, Breast cancer, read-out: GI%
Procedure: as §1, §2, §3, §4, §5, §6, §7, §8, §9, §10, §11, §12, §13, §14, §15

MCF7 = settings: Homo sapiens, MCF7, Breast cancer, read-out: GI%
Procedure: as §1, §2, §3, §4, §5, §6, §7, §8, §9, §10, §11, §12, §13, §14, §15

HS 578T = settings: Homo sapiens, Breast cancer, read-out: GI%
Procedure: as §1, §2, §3, §4, §5, §6, §7, §8, §9, §10, §11, §12, §13, §14, §15

HOP-62 = settings: Homo sapiens, HOP-62, Non-small cell lung cancer, read-out: GI%
Procedure: as §1, §2, §3, §4, §5, §6, §7, §8, §9, §10, §11, §12, §13, §14, §15

NCI-H23 = settings: Homo sapiens, NCI-H23, Non-small cell lung cancer, read-out: GI%
Procedure: as §1, §2, §3, §4, §5, §6, §7, §8, §9, §10, §11, §12, §13, §14, §15

SN12C = settings: Homo sapiens, Renal cancer, read-out: GI%
Procedure: as §1, §2, §3, §4, §5, §6, §7, §8, §9, §10, §11, §12, §13, §14, §15

BT-549 = settings: Homo sapiens, BT-549, Breast cancer, read-out: GI%
Procedure: as §1, §2, §3, §4, §5, §6, §7, §8, §9, §10, §11, §12, §13, §14, §15

SF-539 = settings: Homo sapiens, SF-539, CNS cancer, read-out: GI%
Procedure: as §1, §2, §3, §4, §5, §6, §7, §8, §9, §10, §11, §12, §13, §14, §15

HCT-116 = settings: Homo sapiens, HCT-116, Colon cancer, read-out: GI%
Procedure: as §1, §2, §3, §4, §5, §6, §7, §8, §9, §10, §11, §12, §13, §14, §15

SK-MEL-28 = settings: Homo sapiens, SK-MEL-28, Melanoma, read-out: GI%
Procedure: as §1, §2, §3, §4, §5, §6, §7, §8, §9, §10, §11, §12, §13, §14, §15

CAKI-1 = settings: Homo sapiens, CAKI-1, Renal cancer, read-out: GI%
Procedure: as §1, §2, §3, §4, §5, §6, §7, §8, §9, §10, §11, §12, §13, §14, §15

UACC-257 = settings: Homo sapiens, UACC-257, Melanoma, read-out: GI%
Procedure: as §1, §2, §3, §4, §5, §6, §7, §8, §9, §10, §11, §12, §13, §14, §15

HL-60(TB) = settings: Homo sapiens, Leukemia, read-out: GI%
Procedure: as §1, §2, §3, §4, §5, §6, §7, §8, §9, §10, §11, §12, §13, §14, §15

OVCAR-5 = settings: Homo sapiens, OVCAR-5, Ovarian cancer, read-out: GI%
Procedure: as §1, §2, §3, §4, §5, §6, §7, §8, §9, §10, §11, §12, §13, §14, §15

Compound	inhibition at 10 µM (UACC-62) [%]	inhibition at 10 µM (EKVX) [%]	inhibition at 10 µM (ACHN) [%]	inhibition at 10 µM (786-0) [%]	inhibition at 10 µM (A498) [%]	inhibition at 10 µM (CCRF-CEM) [%]	inhibition at 10 µM (MDA-MB-231/ATCC) [%]	inhibition at 10 µM (OVCAR-8) [%]	inhibition at 10 µM (T-47D) [%]	inhibition at 10 µM (MCF7) [%]	inhibition at 10 µM (HS 578T) [%]	inhibition at 10 µM (HOP-62) [%]	inhibition at 10 µM (NCI-H23) [%]	inhibition at 10 µM (SN12C) [%]	inhibition at 10 µM (BT-549) [%]	inhibition at 10 µM (SF-539) [%]	inhibition at 10 µM (HCT-116) [%]	inhibition at 10 µM (SK-MEL-28) [%]	inhibition at 10 µM (CAKI-1) [%]	inhibition at 10 µM (UACC-257) [%]	also measured
COc1ccc(-c2nc3cc(Cl)c(Cl)cc3n2CC(=O)NN=Cc2ccc(O)cc2)cc1 [Compound 10b, 2-(5,6-Dichloro-2-(4-methoxyphenyl)-1H-benzo[d]imidazol-1-yl)-N'-(4-hydroxybenzylidene)acetohydrazide]	38	52.6	33.4	34.8	25.9	25.4	21.2	28	56.4	74.2	37.8	19.3	20.3	18	65.6	32.5	45.1	26.4	57.2	23.9	inhibition at 10 µM (HL-60(TB)): 50.7%; inhibition at 10 µM (OVCAR-5): < 5%
COc1ccc(-c2nc3cc(Cl)c(Cl)cc3n2CC(=O)NN=Cc2ccc(O)c(OC)c2)cc1 [Compound 10l, 2-(5,6-Dichloro-2-(4-methoxyphenyl)-1H-benzo[d]imidazol-1-yl)-N'-(4-hydroxy-3-methoxybenzylidene)acetohydrazide]	33.6	51.9	32.4	30.7	16.2	46.9	17.2	27.1	51.3	65.9	32.7	12.4	15	19.9	50.2	32.4	31.6	7.48	55.3	36.3	inhibition at 10 µM (HL-60(TB)): 44.5%; inhibition at 10 µM (OVCAR-5): < 5%
COc1ccc(-c2nc3cc(Cl)c(Cl)cc3n2CC(=O)NN=Cc2cccc(OC)c2)cc1 [Compound 10c, 2-(5,6-Dichloro-2-(4-methoxyphenyl)-1H-benzo[d]imidazol-1-yl)-N'-(3-methoxybenzylidene)acetohydrazide]	37.2	30.4	20.4	19.2	22.7	41.8	15.1	13.5	45.8	56.6	28.9	6.68	10.2	9.21	52.9	24.4	37.9	20.5	43.5	20.9	inhibition at 10 µM (HL-60(TB)): 28.8%; inhibition at 10 µM (OVCAR-5): < 5%
